Where a name gives a salt, the structure may show the parent alone.
Legend:
[1] = target: T1, proton, potassium-adenosine triphosphatase (H+,K+-ATPase) (Sus scrofa, UniProt P19156); assay: Proton potassium-adenosine triphosphatase (H+,K+-ATPase) inhibitory activity test; type: biochemical; conditions: swine gastric microsomal fraction, pH 6.5, 37° C.
T1 construct: a gastric mucous membrane microsomal fraction was prepared from the stomach of swine; from tissue; host or cells: swine stomach, gastric mucous membrane microsomal fraction
Experimental: Proton Potassium-Adenosine Triphosphatase (H^+,K^+-ATPase) Inhibitory Activity Test
According to the method [Biochim. Biophys. Acta, 728, 31 (1983)] of Wallmark et al., a gastric mucous membrane microsomal fraction was prepared from the stomach of swine. First, the stomach was removed, washed with tap water, immersed in 3 mol/L brine, and the surface of the mucous membrane was wiped with a paper towel. The gastric mucous membrane was detached, chopped, and homogenized in a 0.25 mol/L saccharose solution (pH 6.8) containing 1 mmol/L EDTA and 10 mmol/L tris-hydrochloric acid using polytron (Kinematica). The obtained homogenate was centrifuged at 20,000×g for 30 min and the supernatant was centrifuged at 100,000×g for 90 min. The precipitate was suspended in 0.25 mol/L saccharose solution, superimposed on a 0.25 mol/L saccharose solution containing 7.5% Ficoll, and centrifuged at 100,000×g for 5 hr. The fraction containing the interface between the both layers was recovered, and centrifugally washed with 0.25 mol/L saccharose solution.
The obtained microsomal fraction was used as a proton, potassium-adenosine triphosphatase standard product.
To 40 μL of a 50 mmol/L HEPES-tris buffer (5 mmol/L magnesium chloride, 10 mmol/L potassium chloride, 10 μmol/L valinomycin, pH=6.5) containing 2.5 μg/mL (based on the protein concentration) of the enzyme standard product was added a test compound (5 μL) dissolved in a 10% aqueous dimethyl sulfoxide solution, and the mixture was incubated at 37° C. for 30 min. The enzyme reaction was started by adding 5 μL of a 2 mmol/L adenosine triphosphate tris salt solution (50 mmol/L HEPES-tris buffer (5 mmol/L magnesium chloride, pH 6.5)). The enzyme reaction was carried out at 37° C. for 20 min, and 15 μL of a malachite green solution (0.12% malachite green solution in sulfuric acid (2.5 mol/L), 7.5% ammonium molybdate and 11% Tween 20 were mixed at a ratio of 100:25:2) was added to quench the reaction. After allowing to stand at room temperature for 15 min, the resulting reaction product of inorganic phosphorus with malachite green was calorimetrically determined at a wavelength of 610 nm. In addition, the amount of the inorganic phosphoric acid in the reaction solution free of potassium chloride was measured in the same manner, which was subtracted from the inorganic phosphoric acid amount in the presence of potassium chloride to determine the proton, potassium-adenosine triphosphatase activity. The inhibitory rate (%) was determined from the activity value of the control and the activity values of various concentrations of the test compound, and the 50% inhibitory concentration (IC50) of the proton, potassium-adenosine triphosphatase was determined.

HepG2 = assay: ATP content test (intracellular ATP content, ATPLite); type: cell-based, Human; conditions: HepG2, 30 μM, culture for one day, relative value to control (without addition of drug)
Experimental: (§1) Human liver cancer-derived cell line HepG2 (ATCC No. HB-8065) was passaged using Dulbecco's Modified Eagle medium (DMEM; Invitrogen) containing 10% fetal bovine serum (FBS; TRACE SCIENTIFIC LTD.), 1 mmol/L sodium pyruvate (Invitrogen), 2 mmol/L L-glutamine (Invitrogen), 50 IU/mL penicillin (Invitrogen) and 50 μg/mL streptomycin (Invitrogen) at 5% CO2, 37° C. The test reagent was prepared with DMSO to 10 mM, and further diluted with DMEM medium containing 0.5% FBS, 1 mmol/L sodium pyruvate, 2 mmol/L L-glutamine, 50 IU/mL penicillin and 50 μg/mL streptomycin to a final concentration of DMSO of 0.1%. HepG2 (2×10^4 cells/well) was cultured on a 96 well white plate (Costar) with the test reagent at 5% CO2, 37° C. After culture for one day, the intracellular ATP content was measured using ATPLite™ (PerkinElmer Life Sciences). The results are shown in Table 26 (n≧3, average value±SD) as a relative value (%) to control (without addition of drug) at 30 μM.

Caspase-3/7 = Caspase-3/7 activity test (Caspase-Glo 3/7 Assay); type: cell-based, Human; conditions: HepG2, 30 μM, culture for one day, relative to maximum with Staurosporine (100%) and no test reagent (0%)
Experimental: as §1
Caspase-3/7 Activity Test
The Caspase-3/7 activity in the cells cultured for one day by a method similar to that in Experimental Example 2 was measured using Caspase-Glo 3/7 Assay (Promega). The results are shown in Table 26 (n≧3, average value±SD) as relative activity (%) of each reagent based on the maximum value of Caspase-3/7 activity when exposed to Staurosporine (100%), and the activity without addition of a test reagent (0%).

T1 sequence (P19156 2-1034 limits assumed): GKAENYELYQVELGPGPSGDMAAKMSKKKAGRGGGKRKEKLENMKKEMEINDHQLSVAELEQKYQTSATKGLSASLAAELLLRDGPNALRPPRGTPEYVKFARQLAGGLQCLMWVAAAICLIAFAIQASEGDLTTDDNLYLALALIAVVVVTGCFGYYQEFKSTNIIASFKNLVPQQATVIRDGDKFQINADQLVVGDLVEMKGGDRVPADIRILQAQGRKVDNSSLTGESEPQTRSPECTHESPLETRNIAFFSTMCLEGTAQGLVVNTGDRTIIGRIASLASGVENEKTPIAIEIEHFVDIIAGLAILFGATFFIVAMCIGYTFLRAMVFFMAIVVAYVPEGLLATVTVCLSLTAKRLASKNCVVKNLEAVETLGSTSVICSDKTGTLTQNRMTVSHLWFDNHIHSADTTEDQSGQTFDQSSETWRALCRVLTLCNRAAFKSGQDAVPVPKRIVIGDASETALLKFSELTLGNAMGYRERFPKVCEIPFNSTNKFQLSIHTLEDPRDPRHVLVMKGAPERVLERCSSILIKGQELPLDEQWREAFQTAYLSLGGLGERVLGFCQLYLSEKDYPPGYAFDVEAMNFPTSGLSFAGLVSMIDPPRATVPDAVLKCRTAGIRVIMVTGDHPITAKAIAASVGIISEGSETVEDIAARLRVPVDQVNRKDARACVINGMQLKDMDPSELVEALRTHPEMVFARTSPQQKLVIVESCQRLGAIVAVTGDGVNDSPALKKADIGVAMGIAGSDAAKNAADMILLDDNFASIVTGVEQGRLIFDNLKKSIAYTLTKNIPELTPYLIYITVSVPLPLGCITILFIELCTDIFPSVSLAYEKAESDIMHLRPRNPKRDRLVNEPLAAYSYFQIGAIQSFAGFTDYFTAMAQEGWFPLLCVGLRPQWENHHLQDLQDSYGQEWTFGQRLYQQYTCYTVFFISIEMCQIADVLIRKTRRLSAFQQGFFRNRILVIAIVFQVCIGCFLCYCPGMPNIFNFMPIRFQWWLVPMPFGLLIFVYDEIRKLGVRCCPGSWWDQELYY
T1 sequence (P18434 whole entry partner): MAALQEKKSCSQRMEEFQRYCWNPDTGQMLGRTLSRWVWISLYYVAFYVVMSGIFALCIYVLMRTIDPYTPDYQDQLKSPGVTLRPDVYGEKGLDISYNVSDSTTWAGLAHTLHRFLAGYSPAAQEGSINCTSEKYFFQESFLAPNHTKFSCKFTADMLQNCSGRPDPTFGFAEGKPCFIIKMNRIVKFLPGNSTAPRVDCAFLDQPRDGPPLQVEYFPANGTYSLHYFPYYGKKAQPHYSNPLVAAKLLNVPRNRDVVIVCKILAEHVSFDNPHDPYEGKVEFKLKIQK

| SMILES | IC50 [1] [nM] | ATP content (%, 30 μM) (HepG2) [%] | Caspase-3/7 activity (%, 30 μM) (Caspase-3/7) [%] |
| --- | --- | --- | --- |
| CNCc1cn(S(=O)(=O)c2ccoc2)c(-c2cccnc2F)c1F.Cl [Example 50, 1-[4-fluoro-5-(2-fluoropyridin-3-yl)-1-(3-furylsulfonyl)-1H-pyrrol-3-yl]-N-methylmethanamine hydrochloride] | 60 | 99.8 | −0.3 |
| CNCc1cn(S(=O)(=O)c2ccc(CO)o2)c(-c2cccnc2F)c1F [Example 64, [5-({3-fluoro-2-(2-fluoropyridin-3-yl)-4-[(methylamino)methyl]-1H-pyrrol-1-yl}sulfonyl)-2-furyl]methanol 0.5 fumarate] | 190 | 102.2 | −0.1 |
| CNCc1cc(-c2cccnc2Cl)n(S(=O)(=O)c2ccccc2)c1.Cl [Example 15, 1-[5-(2-chloropyridin-3-yl)-1-(phenylsulfonyl)-1H-pyrrol-3-yl]-N-methylmethanamine hydrochloride] | 43 | 90.4 | −0.8 |
| CNCc1cc(-c2cccnc2F)n(S(=O)(=O)c2ccco2)c1.O=C(O)/C=C/C(=O)O [Example 3, 1-[5-(2-fluoropyridin-3-yl)-1-(2-furylsulfonyl)-1H-pyrrol-3-yl]-N-methylmethanamine fumarate] | 59 | 91.4 | −0.5 |
| CNCc1cc(-c2cccnc2F)n(S(=O)(=O)c2ccc(F)cc2)c1.O=C(O)/C=C/C(=O)O [Example 20, 1-{1-[(4-fluorophenyl)sulfonyl]-5-(2-fluoropyridin-3-yl)-1H-pyrrol-3-yl}-N-methylmethanamine fumarate] | 57 | 86.6 | −0.2 |
| CNCc1cn(S(=O)(=O)c2ccccc2)c(-c2cccnc2F)c1C.Cl [Example 26, 1-[5-(2-fluoropyridin-3-yl)-4-methyl-1-(phenylsulfonyl)-1H-pyrrol-3-yl]-N-methylmethanamine hydrochloride] | 110 | 85.2 | −0.2 |
| CNCc1cn(S(=O)(=O)c2cccnc2)c(-c2cccnc2F)c1F.O=C(O)/C=C/C(=O)O [Example 8, 1-[4-fluoro-5-(2-fluoropyridin-3-yl)-1-(pyridin-3-ylsulfonyl)-1H-pyrrol-3-yl]-N-methylmethanamine fumarate] | 90 | 103.9 | 0.2 |
| CNCc1cn(S(=O)(=O)c2cccnc2)c(-c2cccnc2F)c1F [Example 28, 1-[4-fluoro-5-(2-fluoropyridin-3-yl)-1-(pyridin-3-ylsulfonyl)-1H-pyrrol-3-yl]-N-methylmethanamine 0.5 fumarate] | 71 | – | – |
| CNCc1cn(S(=O)(=O)c2cccc(CO)c2)c(-c2cccnc2F)c1F [Example 48, [3-({3-fluoro-2-(2-fluoropyridin-3-yl)-4-[(methylamino)methyl]-1H-pyrrol-1-yl}sulfonyl)phenyl]methanol 0.5 fumarate] | 130 | 92.7 | −0.8 |
| CNCc1cc(-c2cccnc2C#N)n(S(=O)(=O)c2ccccc2)c1.Cl [Example 16, 3-{4-[(methylamino)methyl]-1-(phenylsulfonyl)-1H-pyrrol-2-yl}pyridine-2-carbonitrile hydrochloride] | 120 | 97.1 | 0 |
| CNCc1cc(-c2ccc(C)nc2F)n(S(=O)(=O)c2cccnc2)c1.O=C(O)/C=C/C(=O)O [Example 13, 1-[5-(2-fluoro-6-methylpyridin-3-yl)-1-(pyridin-3-ylsulfonyl)-1H-pyrrol-3-yl]-N-methylmethanamine fumarate] | 120 | 87.7 | 0.2 |
| CNCc1cn(S(=O)(=O)c2cnn(C)c2)c(-c2cccnc2F)c1Cl.O=C(O)/C=C/C(=O)O [Example 58, 1-{4-chloro-5-(2-fluoropyridin-3-yl)-1-[(1-methyl-1H-pyrazol-4-yl)sulfonyl]-1H-pyrrol-3-yl}-N-methylmethanamine fumarate] | 300 | 98.0 | −1.9 |
| CNCc1cn(S(=O)(=O)c2ccc(CF)o2)c(-c2cccnc2F)c1F.O=C(O)/C=C/C(=O)O [Example 66, 1-[4-fluoro-1-{[5-(fluoromethyl)-2-furyl]sulfonyl}-5-(2-fluoropyridin-3-yl)-1H-pyrrol-3-yl]-N-methylmethanamine fumarate] | 140 | 94.8 | −0.2 |

More lines, now with the values ahead:

| IC50 [1] [nM] | ATP content (%, 30 μM) (HepG2) [%] | Caspase-3/7 activity (%, 30 μM) (Caspase-3/7) [%] | SMILES |
| --- | --- | --- | --- |
| 170 | 83.4 | 3.6 | CNCc1cn(S(=O)(=O)c2ccc(C#N)o2)c(-c2cccnc2F)c1F.O=C(O)/C=C/C(=O)O [Example 68, 5-({3-fluoro-2-(2-fluoropyridin-3-yl)-4-[(methylamino)methyl]-1H-pyrrol-1-yl}sulfonyl)-2-furonitrile fumarate] |
| 180 | 96.6 | 0.3 | CNCc1cn(S(=O)(=O)c2nccs2)c(-c2cccnc2F)c1F.Cl [Example 83, 1-[4-fluoro-5-(2-fluoropyridin-3-yl)-1-(1,3-thiazol-2-ylsulfonyl)-1H-pyrrol-3-yl]-N-methylmethanamine hydrochloride] |
| 300 | 101.7 | −0.2 | CNCc1cn(S(=O)(=O)c2cnn(C(F)F)c2)c(-c2cccnc2F)c1F.Cl [Example 81, 1-[1-{[1-(difluoromethyl)-1H-pyrazol-4-yl]sulfonyl}-4-fluoro-5-(2-fluoropyridin-3-yl)-1H-pyrrol-3-yl]-N-methylmethanamine hydrochloride] |
| 270 | 82.7 | 0.0 | CNCc1cc(-c2cccnc2C#N)n(S(=O)(=O)c2ccccc2Cl)c1.Cl [Example 99, 3-{1-[(2-chlorophenyl)sulfonyl]-4-[(methylamino)methyl]-1H-pyrrol-2-yl}pyridine-2-carbonitrile hydrochloride] |
| 230 | 97.3 | −0.5 | CNCc1cc(-c2cccnc2C#N)n(S(=O)(=O)c2ccccc2C#N)c1.Cl [Example 101, 3-{1-[(2-cyanophenyl)sulfonyl]-4-[(methylamino)methyl]-1H-pyrrol-2-yl}pyridine-2-carbonitrile hydrochloride] |
| 98 | 102.0 | −0.6 | CNCc1cn(S(=O)(=O)c2ccccn2)c(-c2cccnc2F)c1F.Cl [Example 85, 1-[4-fluoro-5-(2-fluoropyridin-3-yl)-1-(pyridin-2-ylsulfonyl)-1H-pyrrol-3-yl]-N-methylmethanamine hydrochloride] |
